The values that follow come from patent publication US6664229B2, “Methods for treatment using novel ligands of the neuropeptide receptor HFGAN72” (SmithKline Beecham p.l.c., priority 1997, dated 2003).

The experiment deals with rats. Description: Cannula placement verification: dipsogenic response to icv angiotensin II. It is filed as in vivo, rat. As to conditions: 100 ng i.c.v., 5 minute period post-AII, average. The protocol:
An appropriate cannula placement is indicated by an intense dipsogenic response to 100 ng i.c.v. angiotensin II (AII). To induce a dipsogenic effect, access is required to the AII receptors located on circumventricular organs around the third ventricle. The time spent drinking for a 5 minute period post-AII is recorded. This tends to be an all-or-nothing effect, but rats spend on average 150 s drinking. […] This may be verified by injection of cresyl violet and sectioning of the brain.

Substance “angiotensin II (DRVYIHPF; Angiotensin-2; UniProt P01019 25-32, looked up)” yielded a time spent drinking of approximately 150 s.
